Test results: patent US20070037149A1, “Human calcium transporter 1 gene, screening method of calcium absorption regulating factor, and calcium absorption regulating factor” (priority 2003, published 2007)

What was measured:
[1] = target: T1, human CaT1 (Homo sapiens, UniProt Q9H1D0, I526V); experiment: 45Ca2+ uptake by human CaT1 constant expression cells (CHO cells transfected with pMEHis-CaT1); assay type: cell-based; conditions: preincubated 4 hours; for amount of 45Ca2+ incorporated into the cells versus control: 3.0 mM, ANOVA, FIG. 28
T1 construct: expressed in transfected cells
T1 sequence (Q9H1D0 45-765 I526V): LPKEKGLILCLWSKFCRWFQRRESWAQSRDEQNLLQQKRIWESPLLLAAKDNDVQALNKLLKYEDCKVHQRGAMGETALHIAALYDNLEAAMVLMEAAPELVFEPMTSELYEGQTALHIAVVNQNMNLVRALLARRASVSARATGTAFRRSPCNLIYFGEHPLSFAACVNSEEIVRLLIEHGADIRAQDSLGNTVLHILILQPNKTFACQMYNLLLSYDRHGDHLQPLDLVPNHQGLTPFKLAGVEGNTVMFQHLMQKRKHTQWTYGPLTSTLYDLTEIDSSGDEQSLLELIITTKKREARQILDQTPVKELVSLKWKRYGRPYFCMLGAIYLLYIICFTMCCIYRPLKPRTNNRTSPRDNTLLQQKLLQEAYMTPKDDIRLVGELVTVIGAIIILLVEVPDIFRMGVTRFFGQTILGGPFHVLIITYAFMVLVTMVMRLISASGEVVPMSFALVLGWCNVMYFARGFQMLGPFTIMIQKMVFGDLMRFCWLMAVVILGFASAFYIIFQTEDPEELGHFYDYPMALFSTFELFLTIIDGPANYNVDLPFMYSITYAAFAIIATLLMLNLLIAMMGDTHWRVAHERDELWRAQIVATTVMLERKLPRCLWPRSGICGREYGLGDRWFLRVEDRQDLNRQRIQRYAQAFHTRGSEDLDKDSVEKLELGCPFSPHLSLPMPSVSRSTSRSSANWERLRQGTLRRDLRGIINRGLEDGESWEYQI

[2] = target: T1, human CaT1; experiment: as above; assay type: cell-based; conditions: for amount of 45Ca2+ incorporated, influence of metal ions: versus control, FIG. 14
Protocol: That is, 1×10^5 cells/well of human CaT1 constant expression cells were cultured on a 24-well plate using a medium obtained by adding 10% FCS (fetal calf serum) was added to the above-mentioned DMEM/F12 medium at 37° C. for 5 days in a CO2 environment. After the medium was removed and the cells were washed with PBS buffer and HBSS buffer, to each well added was HBSS buffer containing 5.28 μM of ^45 Ca^2+, which was removed after a predetermined time (usually for 10 minutes excepting the case in which cultivation time is varied (time course is to be obtained)), the cells were solubilized with 1% triton (triton X-100), and then the cells were recovered. The amount of ^45Ca^2+ incorporated into the cells was measured using a liquid scintillation counter. As a control, CHO cells transfected with no human CaT1 gene were also subjected to the same operations to measure the amount of ^45Ca^2+ incorporated in the cells.
On the other hand, the effects of the metallic ion were examined by the same culture conditions and procedures as those in (4) except that 100 μM each of chloride salts La^3+, Gd^3+, Cd^2+, Co^2+, Fe^2+, Mn^2+, and Mg^2+ (10 mM for Mg2+ only) and 100 μM of choline chloride (Cho-Cl) were added to a HBSS buffer containing 5.28 μM of ^45Ca^2+.
In other words, in regards to a cultured human CaT1 constant expression cells evaluated by the same culture conditions and procedures as those in (4), a medium was displaced by a DMEM (—Ca) medium (Dulbecco's Modified Eagle Medium (cont.) Base Catalog No. 21068, manufactured by GIBCO™ Invitrogen Corporation: KCl 400.00 mg/l, NaCl 6400.00 mg/l, NaHCO3 3700.00 mg/l, NaH2PO4.H2O 125.00 mg/l, D-glucose 4500.00 mg/l, L-isoleucine 105.00 mg/l, L-leucine 105.00 mg/l, L-lysine.HCl 146.00 mg/l, L-tyrosin/2Na.2H2O 104.00mg/l) containing, as the food factor, 7% lactose (special grade reagents) 1% casein enzymatic degradation products, 1% guar gum hydrolysate, and soybean enzymatic degradation products (manufactured by Fuji oil Co., Ltd.), respectively, and the amount of ^45Ca^2+ incorporated into the cells was measured after preincubation for additional 4 hours.
The enzyme-treated sample obtained in (1) was dissolved in DMEM (—Ca) (the same as that used in Example 1(6)) so as to make a concentration of 1.0 (w/v)%. This was added to human CaT1 constant expression cells cultivated by the same culture conditions and the same procedures as those in Example 1(4) and CHO cells transfected with no human CaT1 gene, and these cells were preincubated for 4 hours. A medium contained 2.5% dialyzed (Spectra/POR MWCO:100) FCS and 2% L-glutamine solution.
Immediately after completion of the pretreatement, the amount of ^45Ca^2+ incorporated into the cells was measured by the same technique as used in Example 1(4). On the other hand, the same procedure was followed without addition of the enzyme-treated samples as a control.

[3] = target: human calcium transporter 1 (human CaT1) (human) (UniProt Q9H1D0); experiment: cell-based or functional assay
[4] = 100 μM chloride salt in HBSS buffer with 5.28 μM 45Ca2+

## C[C@H](N)C(=O)O [Ala]
[1]
  amount of 45Ca2+ incorporated into the cells versus control: no significant increase

## [Cl][Cd][Cl] [Cd^2+]
[2]; [4]
  amount of 45Ca2+ incorporated, influence of metal ions: inhibit

## [Gd+3] [Gd^3+]
[2]; [4]
  amount of 45Ca2+ incorporated, influence of metal ions: inhibit

## CC[C@H](C)[C@H](N)C(=O)O [Ile]
[1]
  amount of 45Ca2+ incorporated into the cells versus control: no significant increase

## enzymatic degradation product of cheese whey (CWP-D)
[3]
  Km of Ca2+ uptake with CWP-D pretreatment (+CWP-D): 19 µM
  Vmax of Ca2+ uptake with CWP-D pretreatment (+CWP-D) (pmol/mg/10 min): 1.06
  amount of 45Ca2+ incorporated into human CaT1 constant expression cells (fold of control, 1.0 (w/v)% CWP-D, 4 h pretreatment): 8 times

## [Mg+2] [Mg^2+]
[2]; 10 mM (Mg2+ only) in HBSS buffer with 5.28 μM 45Ca2+
  amount of 45Ca2+ incorporated, influence of metal ions: no significant difference

## [Co+2] [Co^2+]
[2]; [4]
  amount of 45Ca2+ incorporated, influence of metal ions: inhibit

## [Fe+2] [Fe^2+]
[2]; [4]
  amount of 45Ca2+ incorporated, influence of metal ions: no significant difference

## O=C(O)[C@@H]1CCCN1 [Pro]
[1]
  amount of 45Ca2+ incorporated into the cells versus control: no significant increase

## Ile-Pro-Ala (IPA) [synthetic peptide IPA]
[1]; 0, 0.25, 0.5, 1.0 mg/ml, FIG. 27
  amounts of 45Ca2+ incorporated into the cells, influence of concentration: significantly increased depending on the concentration

## Ile-Pro-Ile [IPI]
[1]
  amount of 45Ca2+ incorporated into the cells versus control: no significant increase

## [La+3] [La^3+]
[2]; [4]
  amount of 45Ca2+ incorporated, influence of metal ions: inhibit

## OC[C@H]1O[C@@H](O[C@H]2[C@H](O)[C@@H](O)C(O)O[C@@H]2CO)[C@H](O)[C@@H](O)[C@H]1O (some centres unmarked) [lactose]
[2]; 7% in DMEM (-Ca) medium, preincubation 4 hours, FIG. 15
  amount of 45Ca2+ incorporated into the cells, influence of food factor: increased

## [Mn+2] [Mn^2+]
[2]; [4]
  amount of 45Ca2+ incorporated, influence of metal ions: no significant difference

## Ile-Pro-Ala [peak 1]
[1]; 0.5 mg/ml, ANOVA p<0.05 versus other peaks and control, FIG. 25
  amount of 45Ca2+ incorporated into the cells, HPLC peaks: increased significantly
